{
  "source": "patent US20250205195A1",
  "about": "“BENZYLOXY-BENZYLAMINYL AMINO ACID DERIVATIVE FOR ADJUSTING TSLP/TSLPR SIGNAL TRANSMISSION” (AMTIXBIO CO., LTD., priority 2021, published 2025)",
  "tested_on": "TSLP",
  "experiment": "TNF-α-induced TSLP in HaCaT cells (ELISA)",
  "type": "cell-based, human",
  "settings": "HaCaT culture supernatant, TNF-α stimulated, 1 h pretreatment, equal amounts of compounds",
  "procedure": "Human keratinocyte HaCaT cells (obtained from the Korean Cell Line Bank) were seeded in a 12-well plate at an initial density of 2×10^5 cells/well and cultured at 37° C. for 16 to 24 hours. FK506 (Sigma), compounds 27 and 29 of the present invention were then added to the HaCaT cell culture medium at final concentrations of 0, 1, 2, 4, and 8 µg/mL, and the cells were cultured at 37° C. for 1 hour. Next, to induce TSLP, the culture medium was treated with TNF-α (Sigma-Aldrich, USA) to a final concentration of 100 ng/mL, and the cells were cultured for an additional 24 hours at 37° C. The culture supernatant was collected, and the amount of induced TSLP from HaCaT cells was determined using an ELISA kit (R&D Systems, USA) according to the manufacturer's instructions. […] Under the same conditions, to compare the TSLP reduction efficiency R.R. (Reduction rate) of compound 27, positive control compound and compound 29, equal amounts of compounds 27, 29 and FK506 (Sigma-Aldrich, USA) were pretreated for 1 hour. The amount of TSLP released into the culture supernatant from HaCaT cells stimulated by TNF-α was quantitatively analyzed and presented in Table 3 and FIG. 3 (c).",
  "data": [
    {"smiles": "CCC(NC)C(=O)NCc1ccc(OCc2ccc(Cl)cc2)cc1", "note": "(racemic) [Compound 29, (R)/(S)—N-(4-((4-chlorobenzyl)oxy)benzyl)-2-(methylamino)butanamide]", "values": [
      {"measurement": "R.R (Reduction rate) of TSLP", "value": 58, "unit": "%"},
      {"measurement": "TSLP", "value": 210, "unit": "ng/mL"}
    ]}
  ]
}
